Like-named read-outs stand apart in the source and are kept apart here.
Columns and labels:
K-Ras G12C = K-Ras G12C (Homo sapiens (Human), UniProt P01116+P62937, G12C); assay: Ras-Raf (BRAF RBD) disruption / FRET / MOA assay, KRAS G12C; type: biochemical
In short: (§1)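 Ras:RAF disruption was scored as a fall in TR-FRET ratio relative to DMSO. Compound ranged in 3-fold steps over 10 points from 30 μM final; incubation ran 3 h at 25° C, detection antibodies a further 1.5 h. Reported as IC50.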

K-Ras G13C = K-Ras G13C (Homo sapiens (Human), UniProt P01116+P62937, G13C); assay: Ras-Raf (BRAF RBD) disruption / FRET / MOA assay, KRAS G13C; type: biochemical
Chain of K-Ras G13C (P01116-2 other isoform, or with tags, fused parts or gaps G13C): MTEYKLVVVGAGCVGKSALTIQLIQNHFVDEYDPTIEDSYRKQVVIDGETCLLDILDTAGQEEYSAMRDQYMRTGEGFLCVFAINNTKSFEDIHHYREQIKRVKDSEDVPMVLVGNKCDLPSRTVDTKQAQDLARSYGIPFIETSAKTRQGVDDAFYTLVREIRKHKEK
Chain of K-Ras G13C (P62937 whole entry): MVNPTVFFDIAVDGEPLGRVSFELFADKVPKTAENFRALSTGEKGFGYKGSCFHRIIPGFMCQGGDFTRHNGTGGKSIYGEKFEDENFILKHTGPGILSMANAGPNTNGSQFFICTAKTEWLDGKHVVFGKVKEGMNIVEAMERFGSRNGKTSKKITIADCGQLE
In short: as §1

NRAS WT = NRAS WT (Homo sapiens (Human), UniProt P01111+P62937); assay: Ras-Raf (BRAF RBD) disruption / FRET / MOA assay, NRAS WT; type: biochemical; conditions: read-out: IC50* NRAS WT FRET data
Chain of NRAS WT (P01111 whole entry): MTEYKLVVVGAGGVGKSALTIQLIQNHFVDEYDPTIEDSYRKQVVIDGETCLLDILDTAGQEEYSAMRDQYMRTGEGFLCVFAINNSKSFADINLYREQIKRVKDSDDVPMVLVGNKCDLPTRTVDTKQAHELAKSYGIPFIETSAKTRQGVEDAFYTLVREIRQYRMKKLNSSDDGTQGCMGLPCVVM
Chain of NRAS WT (P62937 whole entry): as the sequence (P62937 whole entry) above
In short: (§2)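 TR-FRET disruption of nucleotide-loaded Ras binding to BRAF RBD via compound-driven ternary complex with cyclophilin A. Compound as 10-point 3-fold series from 30 μM final, 3 h at 25° C, then anti-His Eu-W1024 (10 nM) and anti-GST allophycocyanin (50 nM) for 1.5 h. IC50 from decreased FRET ratio versus DMSO.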

KRAS Q61H = KRAS Q61H (Homo sapiens (Human), UniProt P01116+P62937, Q61H); assay: Ras-Raf (BRAF RBD) disruption / FRET / MOA assay, KRAS Q61H; type: biochemical; conditions: Ras-Raf disruption/FRET/MOA assay; class symbols; read-out: KRAS Q61H FRET data IC50
Chain of KRAS Q61H (P01116-2 other isoform, or with tags, fused parts or gaps Q61H): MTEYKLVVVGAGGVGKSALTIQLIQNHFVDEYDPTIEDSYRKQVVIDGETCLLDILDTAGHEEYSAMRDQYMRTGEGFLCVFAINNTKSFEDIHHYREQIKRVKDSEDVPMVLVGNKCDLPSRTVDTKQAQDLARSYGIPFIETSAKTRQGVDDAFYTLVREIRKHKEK
Chain of KRAS Q61H (P62937 whole entry): as the sequence (P62937 whole entry) above
In short: as §2

[1] = test system: NCI-H358 cells (K-Ras G12C); assay: Potency assay: pERK in NCI-H358 cells; type: cell-based, human; conditions: Homo sapiens
In short: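 4 h cpd, 37 °C; 10-pt 3-fold series, 10 mM DMSO top stock, duplicates. Readout pERK: AlphaLISA SureFire Ultra or In-Cell Western (IR-800CW secondary, DRAQ5 DNA stain). IC50, 4-PL fit vs log conc.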

NRAS Q61R = NRAS Q61R (Homo sapiens (Human), UniProt P01111+P62937, Q61R); assay: Ras-Raf (BRAF RBD) disruption / FRET / MOA assay, NRAS Q61R; type: biochemical; conditions: NRAS Q61R; Ras-Raf disruption/FRET/MOA assay; read-out: IC50* NRAS Q61R FRET data
Chain of NRAS Q61R (P01111 whole entry Q61R): as the sequence (P01111 whole entry) above, with Q61R counted along it
Chain of NRAS Q61R (P62937 whole entry): as the sequence (P62937 whole entry) above
In short: as §2

[2] = KRAS G12C, Ras-Raf disruption/FRET/MOA assay, read-out: IC50* KRAS G12C FRET data
[3] = KRAS G13C, Ras-Raf disruption/FRET/MOA assay, read-out: IC50* KRAS G13C FRET data
[4] = NCI-H358, H358 KRAS G12C, read-out: pERK EC50

Chain of K-Ras G12C (P01116-2 other isoform, or with tags, fused parts or gaps G12C): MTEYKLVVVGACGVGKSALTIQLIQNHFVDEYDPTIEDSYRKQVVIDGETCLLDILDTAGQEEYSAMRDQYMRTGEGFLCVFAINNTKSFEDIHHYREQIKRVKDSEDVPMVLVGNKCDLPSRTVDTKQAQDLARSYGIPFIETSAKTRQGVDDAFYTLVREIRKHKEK
Chain of K-Ras G12C (P62937 whole entry): as the sequence (P62937 whole entry) above

CCn1c(-c2cccnc2[C@H](C)OC)c2c3cc(ccc31)-c1nc(nn1C)C[C@H](NC(=O)[C@@H](COC1CN(C(=O)C#CC(C)(C)N(C)C)C1)C(C)C)C(=O)N1CCC[C@H](N1)C(=O)OCC(C)(C)C2 (atropisomer, axis not shown) [Example A720, (2R)-2-(((1-(4-(dimethylamino)-4-methylpent-2-ynoyl)azetidin-3-yl)oxy)methyl)-N-((6^3S,4S,Z)-1^1-ethyl-1^2-(2-((S)-1-methoxyethyl)pyridin-3-yl)-2^1,10,10-trimethyl-5,7-dioxo-6^1,6^2,6^3,6^4,6^5,6^6-hexahydro-1^1H,2^1H-8-oxa-1(5,3)-indola-6(1,3)-pyridazina-2(5,3)-triazolacycloundecaphane-4-yl)-3-methylbutanamide]
IC50 (K-Ras G12C; [2]): 10 to 100 nM | IC50 (K-Ras G13C; [3]): 1000 to 10000 nM | IC50 (NRAS WT): 1000 to 10000 nM | IC50 (KRAS Q61H): 1000 to 10000 nM | EC50 [1, 4]: < 5000 nM | IC50 (NRAS Q61R): 1000 to 10000 nM

C=CC(=O)N1CCC(F)(C(=O)N(C)[C@H](C(=O)N[C@H]2C[C@H]3CN(CCO3)c3ccc4c(c3)c(c(-c3cccnc3[C@H](C)OC)n4CC)CC(C)(C)COC(=O)[C@@H]3CCCN(N3)C2=O)C(C)C)CC1 (atropisomer, axis not shown) [Example A722, 1-acryloyl-N-((2S)-1-(((6^3S,4S)-1^1-ethyl-1^2-(2-((S)-1-methoxyethyl)pyridin-3-yl)-10,10-dimethyl-5,7-dioxo-6^1,6^2,6^3,6^4,6^5,6^6-hexahydro-1^1H-8-oxa-2(4,2)-morpholina-1(5,3)-indola-6(1,3)-pyridazinacycloundecaphane-4-yl)amino)-3-methyl-1-oxobutan-2-yl)-4-fluoro-N-methylpiperidine-4-carboxamide]
IC50 (K-Ras G12C; [2]): 10 to 100 nM | IC50 (K-Ras G13C; [3]): 100 to 1000 nM | IC50 (NRAS WT): 100 to 1000 nM | IC50 (KRAS Q61H): 1000 to 10000 nM | EC50 [1, 4]: < 5000 nM | IC50 (NRAS Q61R): 1000 to 10000 nM

C=CC(=O)N1CC(OC[C@H](C(=O)N[C@H]2C[C@H]3CN(CCO3)c3ccc4c(c3)c(c(-c3cccnc3[C@H](C)OC)n4CC(F)(F)F)CC(C)(C)COC(=O)[C@@H]3CCCN(N3)C2=O)C(C)C)C1 (atropisomer, axis not shown) [Example A723]
IC50 (K-Ras G12C; [2]): 100 to 1000 nM | IC50 (K-Ras G13C; [3]): 1000 to 10000 nM | IC50 (NRAS WT): 1000 to 10000 nM | IC50 (KRAS Q61H): 1000 to 10000 nM | EC50 [1, 4]: < 5000 nM | IC50 (NRAS Q61R): > 10000 nM

CCn1c(-c2cccnc2[C@H](C)OC)c2c3cc(ccc31)-c1csc(n1)C[C@H](NC(=O)[C@H](C(C)C)N(C)C(=O)N(C)C1CN(C(=O)/C=C/[C@H]3CCCN3C)C1)C(=O)N1CCC[C@H](N1)C(=O)OCC(C)(C)C2 (atropisomer, axis not shown) [Example A729]
IC50 (K-Ras G12C; [2]): 100 to 1000 nM | IC50 (K-Ras G13C; [3]): 100 to 1000 nM | IC50 (NRAS WT): 100 to 1000 nM | IC50 (KRAS Q61H): 100 to 1000 nM | EC50 [1, 4]: < 5000 nM | IC50 (NRAS Q61R): 1000 to 10000 nM

CCn1c(-c2cccnc2[C@H](C)OC)c2c3cc(ccc31)-c1csc(n1)C[C@H](NC(=O)[C@H](C(C)C)N(C)C(=O)N(C)C1CN(C(=O)/C=C/[C@@H]3CCCN3C)C1)C(=O)N1CCC[C@H](N1)C(=O)OCC(C)(C)C2 (atropisomer, axis not shown) [Example A730]
IC50 (K-Ras G12C; [2]): 10 to 100 nM | IC50 (K-Ras G13C; [3]): 100 to 1000 nM | IC50 (NRAS WT): 100 to 1000 nM | IC50 (KRAS Q61H): 100 to 1000 nM | EC50 [1, 4]: < 5000 nM | IC50 (NRAS Q61R): 1000 to 10000 nM

CC#CC(=O)N1CC(N(C)C(=O)N(C)[C@H](C(=O)N[C@H]2Cc3nc(cs3)-c3ccc4c(c3)c(c(-c3cccnc3[C@H](C)OC)n4CC)CC(C)(C)COC(=O)[C@@H]3CCCN(N3)C2=O)C(C)C)C1 (atropisomer, axis not shown) [Example A731]
IC50 (K-Ras G12C; [2]): 100 to 1000 nM | IC50 (K-Ras G13C; [3]): 100 to 1000 nM | IC50 (NRAS WT): 100 to 1000 nM | IC50 (KRAS Q61H): 100 to 1000 nM | EC50 [1, 4]: < 5000 nM | IC50 (NRAS Q61R): 1000 to 10000 nM

C=C(F)C(=O)N1CC(N(C)C(=O)N(C)[C@H](C(=O)N[C@H]2Cc3nc(cs3)-c3ccc4c(c3)c(c(-c3cccnc3[C@H](C)OC)n4CC)CC(C)(C)COC(=O)[C@@H]3CCCN(N3)C2=O)C(C)C)C1 (atropisomer, axis not shown) [Example A732]
IC50 (K-Ras G12C; [2]): 100 to 1000 nM | IC50 (K-Ras G13C; [3]): 100 to 1000 nM | IC50 (NRAS WT): 100 to 1000 nM | IC50 (KRAS Q61H): 100 to 1000 nM | EC50 [1, 4]: < 5000 nM | IC50 (NRAS Q61R): 100 to 1000 nM

C=CC(=O)N1CCN(C(=O)N(C)[C@H](C(=O)N[C@H]2Cc3nc(cs3)-c3ccc4c(c3)c(c(-c3cccnc3[C@H](C)OC)n4CC)CC(C)(C)COC(=O)[C@@H]3CCCN(N3)C2=O)C(C)C)[C@H]2C[C@H]21 (atropisomer, axis not shown) [Example A737]
IC50 (K-Ras G12C; [2]): 10 to 100 nM | IC50 (K-Ras G13C; [3]): 10 to 100 nM | IC50 (NRAS WT): 10 to 100 nM | IC50 (KRAS Q61H): 10 to 100 nM | EC50 [1, 4]: < 5000 nM | IC50 (NRAS Q61R): 10 to 100 nM

C=CS(=O)(=O)N1CCC(C(=O)N(C)[C@H](C(=O)N[C@H]2Cc3nc(cs3)-c3ccc4c(c3)c(c(-c3cncnc3)n4CC)CC(C)(C)COC(=O)[C@@H]3CCCN(N3)C2=O)C(C)C)C1 (single isomer, unassigned) [Example A170]
IC50 (K-Ras G12C; [2]): 1000 to 10000 nM | IC50 (K-Ras G13C; [3]): 1000 to 10000 nM | IC50 (NRAS WT): > 10000 nM | IC50 (KRAS Q61H): > 10000 nM | EC50 [1, 4]: < 5000 nM | IC50 (NRAS Q61R): > 10000 nM

C=CS(=O)(=O)N1CCC(C(=O)N(C)[C@H](C(=O)N[C@H]2Cc3cccc(c3)-c3ccc4c(c3)c(c(-c3cncnc3)n4CC)CC(C)(C)COC(=O)[C@@H]3CCCN(N3)C2=O)C(C)C)C1 (single isomer, unassigned) [Example A171]
IC50 (K-Ras G12C; [2]): 1000 to 10000 nM | IC50 (K-Ras G13C; [3]): 1000 to 10000 nM | IC50 (NRAS WT): > 10000 nM | IC50 (KRAS Q61H): > 10000 nM | EC50 [1, 4]: < 5000 nM | IC50 (NRAS Q61R): > 10000 nM

C=CC(=O)N1CC[C@H](C(=O)N(C)[C@H](C(=O)N[C@H]2Cc3cc(ccn3)-c3ccc4c(c3)c(c(-c3cccnc3COC)n4CC)CC(C)(C)COC(=O)[C@@H]3CCCN(N3)C2=O)C(C)C)C1 [Example A136]
IC50 (K-Ras G12C; [2]): 1000 to 10000 nM | IC50 (K-Ras G13C; [3]): > 10000 nM | IC50 (NRAS WT): > 10000 nM | IC50 (KRAS Q61H): 1000 to 10000 nM | EC50 [1, 4]: < 5000 nM | IC50 (NRAS Q61R): > 10000 nM

C=CC(=O)N1CC[C@H](C(=O)N(C)[C@H](C(=O)N[C@H]2Cc3cc(O)cc(c3)-c3ccc4c(c3)c(c(-c3cncs3)n4CC)CC(C)(C)COC(=O)[C@@H]3CCCN(N3)C2=O)C(C)C)C1 [Example A143]
IC50 (K-Ras G12C; [2]): 100 to 1000 nM | IC50 (K-Ras G13C; [3]): > 10000 nM | IC50 (NRAS WT): > 10000 nM | IC50 (KRAS Q61H): 1000 to 10000 nM | EC50 [1, 4]: < 5000 nM | IC50 (NRAS Q61R): > 10000 nM

C=CC(=O)N1CC[C@H](C(=O)N(C)[C@H](C(=O)N[C@H]2Cc3cc(O)cc(c3)-c3ccc4c(c3)c(c(-c3cccc(=O)n3C(C)C)n4CC)CC(C)(C)COC(=O)[C@@H]3CCCN(N3)C2=O)C(C)C)C1 [Example A151]
IC50 (K-Ras G12C; [2]): 100 to 1000 nM | IC50 (K-Ras G13C; [3]): > 10000 nM | IC50 (NRAS WT): 1000 to 10000 nM | IC50 (KRAS Q61H): 1000 to 10000 nM | EC50 [1, 4]: < 5000 nM | IC50 (NRAS Q61R): > 10000 nM

C=CC(=O)N1CC[C@H](C(=O)N(C)[C@H](C(=O)N[C@H]2Cc3cc(O)cc(c3)-c3ccc4c(c3)c(c(-c3cccnc3)n4[C@H](C)C#N)CC(C)(C)COC(=O)[C@@H]3CCCN(N3)C2=O)C(C)C)C1 [Example A193]
IC50 (K-Ras G12C; [2]): 10 to 100 nM | IC50 (K-Ras G12C; with Cyclophilin A, BRAF RBD, read-out: FRET (K-Ras G12C) IC50): 295 nM | IC50 (K-Ras G13C; [3]): 1000 to 10000 nM | IC50 (K-Ras G13C; with Cyclophilin A, BRAF RBD, read-out: FRET (K-Ras G13C) IC50): 10200 nM | IC50 (NRAS WT): 1000 to 10000 nM | IC50 (KRAS Q61H): 100 to 1000 nM | EC50 ([1]; NCI-H358, read-out: pERK EC50): < 5000 nM | IC50 (NRAS Q61R): 1000 to 10000 nM

C=CC(=O)N1CC[C@H](C(=O)N(C)[C@H](C(=O)N[C@H]2Cc3cc(O)cc(c3)-c3ccc4c(c3)c(c(-c3c(C)cccc3C)n4CC)CC(C)(C)COC(=O)[C@@H]3CCCN(N3)C2=O)C(C)C)C1 [Example A226]
IC50 (K-Ras G12C; [2]): 100 to 1000 nM | IC50 (K-Ras G13C; [3]): > 10000 nM | IC50 (NRAS WT): > 10000 nM | IC50 (KRAS Q61H): 1000 to 10000 nM | EC50 [1, 4]: < 5000 nM | IC50 (NRAS Q61R): > 10000 nM
